Legend:
[1] = system: CGRP receptor (CALCRL/RAMP1) (Homo sapiens); assay: Ratio Ki for CGRP receptor in human SK-N-MC cells in the absence of MgCl2 to Ki for CGRP receptor in human SK-N-MC cells in the presence of MgCl2
[2] = Oral bioavailability in dog at 1 mg/kg; assay type: ADME, organism-based, Canis lupus familiaris; details: in vivo
[3] = Volume of distribution at steady state in dog at 0.5 mg/kg, iv and 1 mg/kg, po; assay type: ADME, organism-based, Canis lupus familiaris; details: in vivo, read-out: Vdss
[4] = Clearance in dog at 0.5 mg/kg, iv and 1 mg/kg, po; assay type: ADME, organism-based, Canis lupus familiaris; details: in vivo
[5] = Oral bioavailability in rat at 10 mg/kg; assay type: ADME, organism-based; details: in vivo
[6] = Volume of distribution at steady state in rat at 2 mg/kg, iv and 10 mg/kg, po; assay type: ADME, organism-based; details: in vivo, read-out: Vdss
[7] = Half life in dog at 0.5 mg/kg, iv; assay type: ADME, organism-based, Canis lupus familiaris; set-up: dose 0.5 mg/kg, route intravenous; details: in vivo
[8] = Half life in rat at 2 mg/kg, iv; assay type: ADME, organism-based; set-up: dose 2 mg/kg, route intravenous; details: in vivo
[9] = Clearance in rat at 2 mg/kg, iv and 10 mg/kg, po; assay type: ADME, organism-based; details: in vivo

Ratio Ki [1]	bioavailability [2]	Vd [3]	clearance [4]	bioavailability [5]	Vd [6]	half-life [7]	half-life [8]	clearance [9]	Compound
1	–	–	–	–	–	–	–	–	CC(C)C[C@H](NC(=O)CNC(=O)[C@H](C)NC(=O)[C@H](CC(C)C)NC(=O)[C@H](CCCNC(=N)N)NC(=O)[C@H](Cc1cnc[nH]1)NC(=O)[C@@H](NC(=O)[C@@H](NC(=O)[C@H](CS)NC(=O)[C@@H](NC(=O)[C@H](C)NC(=O)[C@@H](NC(=O)[C@H](CC(=O)O)NC(=O)[C@H](CS)NC(=O)[C@H](C)N)[C@@H](C)O)[C@@H](C)O)C(C)C)[C@@H](C)O)C(=O)N[C@@H](CC(C)C)C(=O)N[C@@H](CO)C(=O)N[C@@H](CCCNC(=N)N)C(=O)N[C@@H](CO)C(=O)NCC(=O)NCC(=O)N[C@H](C(=O)N[C@H](C(=O)N[C@@H](CCCCN)C(=O)N[C@@H](CC(N)=O)C(=O)N[C@@H](CC(N)=O)C(=O)N[C@@H](Cc1ccccc1)C(=O)N[C@H](C(=O)N1CCC[C@H]1C(=O)N[C@H](C(=O)N[C@@H](CC(N)=O)C(=O)N[C@H](C(=O)NCC(=O)N[C@@H](CO)C(=O)N[C@@H](CCCCN)C(=O)N[C@@H](C)C(=O)N[C@@H](Cc1ccccc1)C(N)=O)C(C)C)[C@@H](C)O)C(C)C)C(C)C)C(C)C
–	13%	3 L/kg	0.306 L/h/kg	26%	0.4 L/kg	7.1 h	5.4 h	0.066 L/h/kg	O=C(NCc1cc(F)cc(F)c1)c1nc(N2CCCCS2(=O)=O)cc(Br)c1O

Source: ChEMBL document CHEMBL1909622, “Identification of a novel RAMP-independent CGRP receptor antagonist” (Bioorg Med Chem Lett, 2011)
